Laboratory results taken from US20060105330A1, “Diagnostics and remedies for malignant brain tumor” (Institute of gene and brain science, priority 2002, published 2006).

System: RFX1 gene expression in human glioma U251 cells
Assay: RFX1 gene re-expression by 5-azacytidine and trichostatin A treatment, RT-PCR
Format: cell-based
Settings: single inhibitor, compared with the control, 5-azacytidine 500 nM for 3 days, trichostatin A 500 ng/ml for 24 hours
Procedure: Total RNAs derived from human glioma tissues (GB4, GB13, GB16, and GB17) and human glioma cell lines were extracted with Trizol (manufactured by GIBCO), and total RNAs of normal tissues were purchased from Clontech. cDNAs were synthesized from 10 μg of each of total RNAs using the reverse transcriptase XL (AMV) (manufactured by Takara Shuzo Co., Ltd.) in a final volume of 10 μl. PCR was performed in the system in a total volume of 25 μl, using 1 μl cDNA template and Takara Taq™ (manufactured by Takara Shuzo Co., Ltd.). […]
The resulting PCR products were electrophoresed on 2% agarose gel and analyzed by ethidium bromide staining.
Human glioma cell lines were plated at a low density, incubated for 24 hours, and then 5-azacytidine (methyltransferase inhibitor) (manufactured by Sigma Chemical Co.) was added at a final concentration of 500 nM. […] PCR was then performed and changes in gene expression were analyzed using each agent.
To investigate the relationship between reduction or loss of expression of the RFX1 and BGT-1 genes in glioma and DNA methylation or histone deacetylation, change in expression of each gene was analyzed using the RT-PCR method, either after treatment of human glioma cell lines with the methyltransferase inhibitor 5-azacytidine and the histone deacetylase inhibitor trichostatin A singly or after treatment of cells with both inhibitors.

Row | SMILES | change in expression of the RFX1 gene (RT-PCR)
1 | Nc1ncn([C@@H]2O[C@H](CO)[C@@H](O)[C@H]2O)c(=O)n1 [5-azacytidine] | enhancement of expression
2 | CC(/C=C/C(=O)NO)=C\[C@@H](C)C(=O)c1ccc(N(C)C)cc1 [trichostatin A] | enhancement of expression
